The record followed here is patent publication US20210147381A1, “1,2,3,4-SUBSTITUTED QUINOLINE COMPOUNDS AS SIP MODULATORS” (AbbVie Deutschland GmbH & Co. KG, priority 2017, published 2021).

Common to all, as to assay type: cell-based
For assay [1], the target named is T1, human S1P3 receptor (S1PR3) (Homo sapiens, UniProt Q99500).
T1 construct: host or cells: CHO-K1
The assay can be described thus: Intracellular Ca2+ release (method 1), agonist potency, S1P3. The settings on record: CHO-K1 cells expressing human S1PR3. A digest of the protocol:
(§1)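 CHO-K1 cells co-expressing the human S1P receptor, aequorin and Gq/i5 were loaded with Calcium 5 dye (1 h, 37° C), then equilibrated 45 min at RT in HBSS/20 mM Hepes/2.5 mM probenecid/0.1% BSA, pH 7.4. Fluorescence upon serially diluted compound fitted by 4-parameter logistic; EC50 and Emax normalized to phospho-fingolimod (100%).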

In assay [2] the target is T2, human S1P1 receptor (S1PR1) (Homo sapiens, UniProt P21453).
T2 construct: host or cells: CHO-K1
The assay is described as follows: Intracellular Ca2+ release (method 1), agonist potency, S1P1. As to conditions: CHO-K1 cells expressing human S1PR1; cells given as bound. Summed up: as §1

Assay [3] addresses T3, human S1P5 receptor (S1PR5) (Homo sapiens, UniProt Q9H228).
T3 construct: host or cells: CHO-K1
The assay can be described thus: Intracellular Ca2+ release (method 1), agonist potency and efficacy, S1P5. As to conditions: for Emax: maximum effect in % of reference agonist phospho-fingolimod (100%), read-out: hS1P5 EMax; for EC50: recombinant CHO-K1 cells expressing human S1PR5, aequorin, Gq/i5, Ca2+ release, read-out: S1P5 EC50 range. A digest of the protocol:
as §1

Assay [4] deals with T4, human S1P4 receptor (S1PR4) (Homo sapiens, UniProt O95977).
T4 construct: host or cells: CHO-K1
T4 sequence (O95977 1-384): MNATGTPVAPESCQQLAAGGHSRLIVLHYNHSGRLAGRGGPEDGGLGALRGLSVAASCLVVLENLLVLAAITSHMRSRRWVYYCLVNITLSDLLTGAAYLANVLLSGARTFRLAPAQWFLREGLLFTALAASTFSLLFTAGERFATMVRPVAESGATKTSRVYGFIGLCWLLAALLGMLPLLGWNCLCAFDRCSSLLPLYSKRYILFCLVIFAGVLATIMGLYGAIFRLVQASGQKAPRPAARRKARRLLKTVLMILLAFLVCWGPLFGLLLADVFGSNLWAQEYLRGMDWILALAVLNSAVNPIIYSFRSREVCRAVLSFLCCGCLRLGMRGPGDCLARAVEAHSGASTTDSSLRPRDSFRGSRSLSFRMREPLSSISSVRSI
The assay can be described thus: Intracellular Ca2+ release (method 1), agonist potency, S1P4. The settings on record: CHO-K1 cells expressing human S1PR4. Summed up: as §1

What is called EC50 is the concentration that produces a half-maximal response. One may read the Emax as the size of the effect at its maximum, as opposed to the concentration needed.

Where a name gives a salt, the structure may show the parent alone.

T2 sequence (P21453 whole entry): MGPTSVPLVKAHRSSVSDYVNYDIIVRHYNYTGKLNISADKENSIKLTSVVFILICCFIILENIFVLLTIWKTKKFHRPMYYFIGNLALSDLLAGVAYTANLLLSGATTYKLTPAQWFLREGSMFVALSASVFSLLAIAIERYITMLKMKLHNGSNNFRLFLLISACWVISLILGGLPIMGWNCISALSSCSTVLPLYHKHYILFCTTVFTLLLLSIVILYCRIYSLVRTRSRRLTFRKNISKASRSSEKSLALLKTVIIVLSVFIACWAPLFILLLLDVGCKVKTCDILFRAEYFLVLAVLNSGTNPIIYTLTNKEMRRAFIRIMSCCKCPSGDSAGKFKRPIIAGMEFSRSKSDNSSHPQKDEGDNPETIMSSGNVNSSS
T3 sequence (Q9H228 whole entry): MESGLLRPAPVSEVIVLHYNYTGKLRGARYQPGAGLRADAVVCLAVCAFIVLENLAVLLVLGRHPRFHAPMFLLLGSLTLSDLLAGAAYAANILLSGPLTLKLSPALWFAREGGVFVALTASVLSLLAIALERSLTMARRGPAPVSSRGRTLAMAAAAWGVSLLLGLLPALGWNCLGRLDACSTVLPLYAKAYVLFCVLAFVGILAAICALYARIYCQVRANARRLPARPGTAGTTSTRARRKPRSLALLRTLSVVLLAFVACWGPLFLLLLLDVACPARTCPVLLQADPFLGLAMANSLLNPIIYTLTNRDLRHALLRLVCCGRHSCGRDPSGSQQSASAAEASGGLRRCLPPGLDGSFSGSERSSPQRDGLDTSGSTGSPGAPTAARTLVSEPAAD
T1 sequence (Q99500 whole entry): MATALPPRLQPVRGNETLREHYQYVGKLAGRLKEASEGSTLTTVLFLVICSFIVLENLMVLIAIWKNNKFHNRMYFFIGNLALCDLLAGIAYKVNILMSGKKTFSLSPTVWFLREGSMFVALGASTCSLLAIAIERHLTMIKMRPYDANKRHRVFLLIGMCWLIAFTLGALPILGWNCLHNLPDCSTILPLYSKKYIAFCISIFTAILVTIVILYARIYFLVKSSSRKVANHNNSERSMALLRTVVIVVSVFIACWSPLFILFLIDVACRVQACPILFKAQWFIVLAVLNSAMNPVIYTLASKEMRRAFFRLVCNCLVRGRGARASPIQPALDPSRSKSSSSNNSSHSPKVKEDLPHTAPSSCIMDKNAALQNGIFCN

For the molecule `Cc1ccccc1C#Cc1ccc2c(c1)C1(CC1)CN(CCC(=O)O)C2` [Compound 37, 3-(6′-(o-tolylethynyl)-1′H-spiro[cyclopropane-1,4′-isoquinolin]-2′(3′H)-yl)propanoic acid acetic acid salt (1:1)], the EC50 in assay [1] is above 1000 nM; in assay [2], above 1000 nM; in assay [3], 10 to 100 nM; in assay [4], 100 to 1000 nM. Besides, in assay [3], the Emax was in the range of 50 to 100%.
As for `O=C(O)CCCN1Cc2ccc(OCc3ccc(Cl)c(Cl)c3)cc2C2(CC2)C1` [Compound 26, 4-(6′-((3,4-Dichlorobenzyl)oxy)-1′H-spiro[cyclopropane-1,4′-isoquinolin]-2′(3′H)-yl)butanoic acid], the EC50 is above 1000 nM in assay [1], above 1000 nM in assay [2], 10 to 100 nM in assay [3] and 10 to 100 nM in assay [4]. Moreover, the Emax in assay [3] lay within 50 to 100%.
Take `O=C(O)CCN1Cc2ccc(C#Cc3ccccc3Cl)cc2C2(CC2)C1` [Compound 35, 3-(6′-((2-chlorophenyl)ethynyl)-1′H-spiro[cyclopropane-1,4′-isoquinolin]-2′(3′H)-yl)propanoic acid]: the EC50 in assay [1] was above 1000 nM; in assay [2] it was above 1000 nM; in assay [3], below 10 nM; in assay [4] it was 100 to 1000 nM. Further, the Emax in assay [3] lay within 50 to 100%.
In the case of `O=C(O)CCN1Cc2ccc(C#Cc3cccc(F)c3F)cc2C2(CC2)C1` [Compound 10, 3-(6′-((2,3-Difluorophenyl)ethynyl)-1′H-spiro[cyclopropane-1,4′-isoquinolin]-2′(3′H)-yl)propanoic acid], the EC50 in assay [1] was above 1000 nM; in assay [2], above 1000 nM; in assay [3], below 10 nM; in assay [4] it was 10 to 100 nM. Moreover, in assay [3], the Emax is above 100%.
As to `O=C(O)CCCN1Cc2ccc(OCc3ccc(F)c(F)c3)cc2C2(CC2)C1` [Compound 18, 4-(6′-((3,4-Difluorobenzyl)oxy)-1′H-spiro[cyclopropane-1,4′-isoquinolin]-2′(3′H)-yl)butanoic acid], the EC50 in assay [1] was above 1000 nM; in assay [2] it was above 1000 nM; in assay [3], 10 to 100 nM; in assay [4] it was 100 to 1000 nM. Moreover, the Emax in assay [3] was below 50%.
For the molecule `O=C(O)CCCN1Cc2ccc(C#Cc3ccc(OC(F)(F)F)cc3)cc2C2(CC2)C1` [Compound 48, 4-(6′-((4-(trifluoromethoxy)phenyl)ethynyl)-1′H-spiro[cyclopropane-1,4′-isoquinolin]-2′(3′H)-yl)butanoic acid], the EC50 is above 1000 nM in assay [1], above 1000 nM in assay [2], 10 to 100 nM in assay [3] and above 1000 nM in assay [4] (cells given as bound). The maximal effect (Emax) in assay [3] lay within 50 to 100%.
